Assay results published in patent US20260115202A1, “TOPICAL COMPOSITIONS COMPRISING AN ESTETROL COMPONENT AND USE OF SAID COMPOSITIONS FOR WOUND HEALING” (NEURALIS SA, priority 2022, published 2026).
Entries after “also recorded” stand apart in the source; their conditions may differ.

Key:
MMP2 = assay: Zymography of supernatants from human dermal fibroblasts; format: cell-based; details: HDFs from 3 independent donors, versus control
Protocol: In vitro cultured murine fibroblasts were treated with either E2, E4, DPN or PPT at 10^−7M. As previously reported. […] Next, zymography was performed on cell supernatants from HDFs treated with either E2 or E4, to evaluate the effect of E2 and E4 on cell-derived MMP activity. […] The magnitude of the effect (and statistical significance) was greater in cells treated with E4. No MMP9 activity was detected in any treatment group. Finally, we explored the effect of E2 and E4 on murine fibroblast expression of extracellular matrix genes, specifically collagen 1 (Colal) and fibronectin (Fn1) (FIG. 20).

THP1 cells = assay: THP1 macrophage polarisation, qPCR of M1/M2 markers; format: cell-based, human; details: range of concentrations; for expression of Tnf-α (M1 marker): M1 polarised THP1 cells; for expression of CCL17 (M2 marker): M2 polarised THP1 cells
Protocol: THP1 cells were maintained in RPM1 growth medium supplemented with 10% heat-inactivated FBS and 1% penicillin/streptomycin. Cells were seeded into 12- or 6-well plates at 2×10^5 cells/ml and treated with phorbol 12-myristate 13-acetate (PMA) to induce differentiation to macrophages. Cells were cultured for 24 hours in complete growth medium without PMA, followed by a 6 hour serum starve prior to polarisation. Cells were polarised to M1 macrophages using 20 ng/ml IFN-γ and 10 pg/ml LPS (from E, coli) for 6 or 24 hours and collected for RNA isolation or flow cytometry. Following treatments, human and murine macrophages were collected in Trizol and RNA isolated using the Trizol plus RNA isolation kit (Invitrogen. Thermo Fisher) according to the manufacturer's instructions. RNA was reverse transcribed to cDNA using GoScript reverse transcriptase (Promega). Quantitative real-time PCR was carried out using 2×Takyon SYBR Green mastermix and a CFX Connect thermocycler. Primers for ERα and ERβ were used to explore changes in ER expression after treatment of MEK and MDF with E2 and E4. To investigate the effect of E2 and E4 on MEK differentiation and the expression of ECM proteins by MDF, primers for. Snail, keratin-1 and fibronectin, collagen I. MMP-2 and MMP-9 were used. Primers for INOS. IL-1B and Tnf-α or Ccl17 were used to assess M1/M2 polarisation status. Primers for GAPDH were used to normalise data. Relative gene expression was set to vehicle controls or M0 expression unless otherwise stated. The relative anti-inflammatory effects of both E2 and E4 were evaluated in vitro. First, the human monocyte THP1 cell line was used to screen several concentrations of E2 and E4. THP1 cells were differentiated to a macrophage phenotype by treatment with PMA, followed by polarisation to an M1 or M2 phenotype (FIG. 23). Successful polarisation was confirmed by profiling the expression of the M1 marker (TNF-α) and the M2 marker (CCL17). The effects of co-treatment with a range of E2 or E4 concentrations were evaluated.

[1] = tested on: murine peritoneal macrophages; assay: M1-polarised freshly isolated murine peritoneal macrophages, qPCR of M1 markers; format: cell-based, mouse; details: peritoneal macrophages pre-treated at 10^−7M, M1 polarised 6 hours; for expression of M1 markers (iNOS, IL1-β, Tnf-α): versus vehicle
Protocol: Peritoneal macrophages from C57/B16 mice were isolated by peritoneal lavage. The peritoneal cavity of euthanised mice were filled with 5 ml ice cold PBS supplemented with 3% FBS. Cell-containing lavage fluid was removed using a needle and syringe and cells seeded into 12- or 6-well plates at 1×10^6 cells/ml in RPM1 growth medium supplemented with 10% charcoal-stripped FBS and 1% penicillin/streptomycin, were treated with 10^-7M E2 or E4 in serum free growth medium for 16 hours and polarised to M1-type cells using 100 ng/ml IFN-γ and 1 μg/ml LPS. Following 6- or 24-hours polarisation cells were collected for RNA isolation or flow cytometry. Following treatments, human and murine macrophages were collected in Trizol and RNA isolated using the Trizol plus RNA isolation kit (Invitrogen. Thermo Fisher) according to the manufacturer's instructions. RNA was reverse transcribed to cDNA using GoScript reverse transcriptase (Promega). Quantitative real-time PCR was carried out using 2×Takyon SYBR Green mastermix and a CFX Connect thermocycler. Primers for ERα and ERβ were used to explore changes in ER expression after treatment of MEK and MDF with E2 and E4. To investigate the effect of E2 and E4 on MEK differentiation and the expression of ECM proteins by MDF, primers for. Snail, keratin-1 and fibronectin, collagen I. MMP-2 and MMP-9 were used. Primers for INOS. IL-1B and Tnf-α or Ccl17 were used to assess M1/M2 polarisation status. Primers for GAPDH were used to normalise data. Relative gene expression was set to vehicle controls or M0 expression unless otherwise stated. Finally, the anti-inflammatory effects E2 and E4 were evaluated in freshly isolated murine peritoneal macrophages. Unlike the BMDM protocol, the already differentiated peritoneal macrophages were immediately pre-treated with E2 (10^−7M) or E4 (10^−7M), followed by M1 polarisation using IFN-γ and LPS for 6 hours. […] Note, the overall level of marker expression was higher in these cells. […] The observed anti-inflammatory effects of E4 were broadly similar to those observed for E2.

[2] = tested on: human dermal fibroblasts (HDF); assay: Scratch wound assay, human dermal fibroblasts; format: cell-based; details: for concentration of optimal stimulation of fibroblast scratch wound closure / scratch closure compared to vehicle control: HDF; for scratch closure: HDF fifth donor, 24 hours, DMEM with 2% CS-FBS, 0% FBS or 2% FBS; for scratch closure compared to vehicle control: 36 hours
From the text: Primary human dermal fibroblasts (HDF) were isolated from abdominal skin or leg skin. Primary neonatal normal human epidermal keratinocytes (NHEK) were purchased (Lonza). Murine dermal fibroblasts (MDF), murine epidermal keratinocytes (MEK), murine peritoneal macrophages and murine bone marrow were isolated from C57/B16 (wt). NDb (Lepr+/-) or Db (Lepr-/-) mice. Fibroblasts were isolated and cultured in DMEM supplemented with 10% heat inactivated FBS. 1% penicillin/streptomycin and 1% amphotericin B. At least 4 days prior to performing assays cells were switched to DMEM supplemented with 5% charcoal-stripped FBS. Cells were seeded into 24 well plates and cultured to form a confluent monolayer, and then scratched with a 1 ml pipette tip. Wells were treated with E2, E4 and/or various estrogen receptor agonists and antagonists. […] A vehicle control containing the equivalent concentration of EtOH and/or DMSO was included, in addition to an untreated negative control. All treatments were diluted to working concentrations in media supplemented with 2% charcoal-stripped FBS. To visualise scratches at the defined endpoint, cells were stained with crystal violet and imaged on a Nikon E400 brightfield microscope. Scratch closure was determined from multiple independent measurements per well. Scratch assays were performed to quantify the effect of E2 and E4 at varying concentrations on HDF migration (FIG. 14). […] 10^-7M and 10^-6M (152%. 147% and 142% respectively). Thus, both E2 and E4 optimally stimulated fibroblast scratch wound closure at 10^-8M, with the higher magnitude of stimulation observed following E2 treatment. Next, an additional experiment was performed using HDF to a) further confirm the effects of E2 and E4 in fibroblasts from a fifth donor and b) explore the relative effect of including CS-FBS in the cell culture media. Three identical sets of scratch assays were performed (comparing vehicle to E2 or E4 treatment at 10^-7M) in DMEM containing either 2% CS-FBS. 0% FBS or 2% FBS (not CS).

Row | Compound | MMP2 activity in cell supernatants (MMP2) | expression of Tnf-α (M1 marker) (THP1 cells) | expression of CCL17 (M2 marker) (THP1 cells) | expression of M1 markers (iNOS, IL1-β, Tnf-α) [1] | concentration of optimal stimulation of fibroblast scratch wound closure [2] | scratch closure ([2]; 10^−7M) | scratch closure compared to vehicle control ([2]; 10^−6M) | scratch closure compared to vehicle control ([2]; 10^−7M) [%] | scratch closure compared to vehicle control ([2]; 10^−9M) | expression of IL1-β [1] | scratch closure compared to vehicle control ([2]; 10^−8M) [%]
1 | C[C@]12CC[C@@H]3c4ccc(O)cc4CC[C@H]3[C@@H]1CC[C@@H]2O [Formulation E2, 17β-estradiol, reference compound] | significantly reduced MMP2 activity versus control | strong trend towards reduced expression of Tnf-α in M1 polarised cells | increased expression of CCL 17 in M2 polarised cells | strong trend towards reduced expression | 10^−8 M | promoted scratch closure | no difference in closure was observed | 141 | no difference in closure was observed | – | –
2 | C[C@]12CC[C@@H]3c4ccc(O)cc4CC[C@H]3[C@@H]1[C@@H](O)[C@@H](O)[C@@H]2O [Formulation E4, 1,3,5 (10)-estratrien-3,15alpha, 16alpha, 17beta-tetrol] | significantly reduced MMP2 activity versus control | strong trend towards reduced expression of Tnf-α in M1 polarised cells | increased expression of CCL 17 in M2 polarised cells | strong trend towards reduced expression | 10^−8 M | promoted scratch closure; also recorded: greatest promotion | 142% | 147 | – | achieved statistical significance | 152
